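The compound was tested at five concentrations on cells cultured in 96-well plates, with a 48-hour exposure period. Here, GI50 denotes the concentration required for 50% inhibition of growth.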 Active and inactive are the calls of the source. No stated cut-off is given here; in the data, active = GI50 up to about 1.1 µM and inactive = higher.
Experiments:
Assay in all cases: growth of human tumour cells (NCI), 48 h
[1] = tested on: M19-MEL
[2] = tested on: XF498
[3] = tested on: BT-549
[4] = tested on: MDA-MB-231
[5] = tested on: MDA-MB-435
[6] = tested on: MDA-N
[7] = tested on: 786-0
[8] = tested on: LXFL 529
[9] = tested on: RXF 631

With C=C1C(=O)OC2C1CC1OC2C(C)CCC/C(C)=C\CCC1(C)O (stereo unspecified) the GI50 [1] was 10.1 µM (inactive) and the GI50 [2] was 12 µM (inactive).
With C[C@]12CC[C@H](O)C=C1CC[C@@H]1[C@@H]2CC[C@]2(C)C(c3ccc(=O)oc3)CC[C@]12O (stereo partly specified) the GI50 [1] was 0.0129 µM (active) and the GI50 [2] was 0.0184 µM (active).
COC(=O)C1=C(OC(=O)/C=C/c2ccc(Cl)cc2)C(C(=O)OC)[C@@]2(O)[C@@H](C(=O)OC)[C@H](C)C[C@@H]1[C@@H]2C(=O)OC (stereo partly specified) was tested, and the GI50 [3] was 21.6 µM (inactive), the GI50 [4] was 24.5 µM (inactive) and the GI50 [5] was 14.9 µM (inactive). For the same molecule, the GI50 [6] was 10.4 µM (inactive).
With CCCCCCCCCCCC[N+](CCCCCCCCCCCC)=C1SCCS1 the GI50 [7] was 3.52 µM (inactive), the GI50 [8] was 3.81 µM (inactive) and the GI50 [1] was 3.29 µM (inactive). For the same molecule, the GI50 [9] was 11.1 µM (inactive).
In the case of CCN(CC)CCCNc1ncc(C)c2[nH]c3ccncc3c12, the GI50 [1] is reported as 11.5 µM (inactive) and the GI50 [2] is reported as 11.4 µM (inactive).
For NCCCNCCSSCc1ccccc1CSSCCNCCCN, the GI50 [8] was 30.4 µM (inactive), the GI50 [1] was 50 µM (inactive) and the GI50 [9] was > 100 µM (inactive). The GI50 [2] was 85.1 µM (inactive).
In the case of COc1cc(C2C(C(=O)O)=C(CO)Oc3cc4c(cc32)OCO4)cc(OC)c1OC (stereo unspecified), the GI50 [1] is reported as > 100 µM (inactive), the GI50 [9] is reported as > 100 µM (inactive) and the GI50 [2] is reported as > 100 µM (inactive).
In the case of C=CCn1c(=O)c(C)cn(COCCO)c1=O, the GI50 [3] is reported as > 100 µM (inactive), the GI50 [4] is reported as > 100 µM (inactive) and the GI50 [5] is reported as > 100 µM (inactive). The GI50 [6] was > 100 µM (inactive).
In the case of C[S+](C)([O-])=Nn1c(=O)n2n(c1=O)[C@H]1CC[C@@H]2C1, the GI50 [4] is reported as > 100 µM (inactive), the GI50 [5] is reported as > 100 µM (inactive) and the GI50 [6] is reported as > 100 µM (inactive).
CCOC(=O)Oc1ccc(C(CNC(C)C)OC(=O)OCC)cc1OC(=O)OCC (stereo unspecified) was tested, and the GI50 [7] was > 100 µM (inactive), the GI50 [3] was > 100 µM (inactive) and the GI50 [4] was 26.2 µM (inactive). For the same molecule, the GI50 [5] was > 100 µM (inactive) and the GI50 [6] was > 100 µM (inactive).
CC1(C)N=C(N)N=C(N)N1c1ccc(OCCCOc2ccccc2)c(Cl)c1 was tested, and the GI50 [1] was 0.147 µM (active) and the GI50 [2] was < 0.01 µM (active).
For O=C(Nc1nc2ccc([N+](=O)[O-])cc2s1)C(=O)C(C(=O)c1ccccc1F)C1OC(=O)c2ccccc21 (stereo unspecified), the GI50 [8] was 34 µM (inactive), the GI50 [1] was 31 µM (inactive) and the GI50 [2] was 48.3 µM (inactive).
In the case of CC(NC(C#N)CC12CC3CC(CC(C3)C1)C2)c1ccccc1 (stereo unspecified), the GI50 [4] is reported as 81.1 µM (inactive), the GI50 [5] is reported as > 100 µM (inactive) and the GI50 [6] is reported as > 100 µM (inactive).
CC(C)c1ccccc1SCc1cc(=O)cc(CSc2ccccc2C(C)C)o1 was tested, and the GI50 [4] was 17.9 µM (inactive), the GI50 [5] was 15 µM (inactive) and the GI50 [6] was 18.8 µM (inactive).
In the case of CC12Nc3ccccc3C1=C(c1ccccc1)CC1C(=O)OC(=O)C12 (stereo unspecified), the GI50 [7] is reported as > 100 µM (inactive), the GI50 [8] is reported as > 100 µM (inactive) and the GI50 [1] is reported as > 100 µM (inactive). For the same molecule, the GI50 [9] was > 100 µM (inactive) and the GI50 [2] was > 100 µM (inactive).
COc1cc(C2c3cc4c(cc3[C@@H](Nc3cnc5ccccc5c3)C3COC(=O)[C@H]23)OCO4)cc(OC)c1O (stereo partly specified) was tested, and the GI50 [1] was 0.422 µM (active) and the GI50 [2] was 0.474 µM (active).
CN(C)c1ccc(N2C(=S)SC(=N\c3ccccc3)/C2=N/c2ccccc2)cc1 was tested, and the GI50 [3] was > 100 µM (inactive), the GI50 [4] was > 100 µM (inactive) and the GI50 [5] was > 100 µM (inactive). The GI50 [6] was > 100 µM (inactive).
For NC(=S)N/N=C1\c2ccccc2CCC1CCC1(O)CCc2ccccc2C1=O (stereo unspecified), the GI50 [3] was 16.4 µM (inactive), the GI50 [4] was 26.8 µM (inactive) and the GI50 [5] was 20.9 µM (inactive). The GI50 [6] was 25.2 µM (inactive).
With COc1ccc2c(c1)c1cc(OC)ccc1n2CCCCOc1ccc(-c2c3ccccc3c(-c3ccc(OCCCCn4c5ccc(OC)cc5c5cc(OC)ccc54)cc3)c3ccccc23)cc1 the GI50 [1] was > 100 µM (inactive) and the GI50 [2] was > 100 µM (inactive).

— ChEMBL document CHEMBL1201862, “PubChem BioAssay data set” (2004)
